Our source for the EC50 and Emax values is patent US20240368150A1 (Hoffmann-La Roche Inc., priority 2021, published 2024).

SMILES strings stand for the structures. Like-named read-outs stand apart in the source and are kept apart here.

Test [1] concerns primary human T-cells.
Test [2] has as its system primary human T-cells. Nature of the test: Proliferation assay after 5 days (CellTiter-Glo, CD3 stimulation; PBS counter screen). The following applies: Homo sapiens, T-cell, 120 h; for Emax: read-out: Emax proliferation (% activation); for EC50: read-out: Tcell Proliferation CD3 EC50. It is filed as cell-based. An outline of the steps: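 ATP-based luminescence (CellTiter-Glo 2.0, room temperature) measured proliferation 5 days after compound addition to CD3-stimulated or unstimulated primary human T-cells. Flags marked compounds that lowered viability or activated unstimulated cells.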
A general note: ATP-based viability assays read luminescence as a measure of living cells.

[3] abbreviates: CD3 stimulation, 5 days, normalized to reference compound A1 as stimulator control = 100%, DMSO neutral control.
Setting [4] is: primary human T-cells, CD3 stimulation, CellTiter-Glo after 5 days, EC50 of fitted sigmoidal curve.

In the case of `N[C@H]1CS(=O)(=O)c2ccc(-c3nnc(-c4ccc(F)cc4)o3)cc2N(Cc2ccc(Cl)cc2)C1=O` [Example 375, (3R)-3-amino-5-[(4-chlorophenyl)methyl]-7-[5-(4-fluorophenyl)-1,3,4-oxadiazol-2-yl]-1,1-dioxo-2,3-dihydro-1λ^6,5-benzothiazepin-4-one], the EC50 in test [1] stood at 461 nM; in test [2] (setting [4]), 817 nM. Moreover, in test [2] (setting [3]), the Emax was found to be 62%.
The like results for `N[C@H]1CS(=O)(=O)c2ccc(-c3nnc(-c4ccccc4F)o3)cc2N(Cc2ccc(Cl)cc2)C1=O` [Example 376, (3R)-3-amino-5-[(4-chlorophenyl)methyl]-7-[5-(2-fluorophenyl)-1,3,4-oxadiazol-2-yl]-1,1-dioxo-2,3-dihydro-1λ^6,5-benzothiazepin-4-one] were, in that order, 3200 nM, 4460 nM and 70%.
Take `Cc1ccc(-c2nnc(-c3ccc4c(c3)N(Cc3ccc(Cl)cc3)C(=O)[C@@H](N)CS4(=O)=O)o2)cc1` [Example 377, (3R)-3-amino-5-[(4-chlorophenyl)methyl]-1,1-dioxo-7-[5-(p-tolyl)-1,3,4-oxadiazol-2-yl]-2,3-dihydro-1λ^6,5-benzothiazepin-4-one]: the EC50 in test [1] amounted to 1720 nM; in test [2] (setting [4]) it was 319 nM. Also, in test [2] (setting [3]), the Emax turned out to be 38%.
As to `COC1(c2nnc(-c3ccc4c(c3)N(Cc3ccc(Cl)cc3)C(=O)[C@@H](N)CS4(=O)=O)o2)CCC(F)(F)CC1` [Example 378, (3R)-3-amino-5-[(4-chlorophenyl)methyl]-7-[5-(4,4-difluoro-1-methoxy-cyclohexyl)-1,3,4-oxadiazol-2-yl]-1,1-dioxo-2,3-dihydro-1λ^6,5-benzothiazepin-4-one], the EC50 in test [1] was greater than 10000 nM; in test [2] (setting [4]), 447 nM. Moreover, the Emax in test [2] (setting [3]) turned out to be 74%.
In the case of `[2H]C([2H])([2H])C(c1nnc(-c2ccc3c(c2)N(Cc2ccc(Cl)cc2)C(=O)[C@@H](N)CS3(=O)=O)o1)(C([2H])([2H])[2H])C([2H])([2H])[2H]` [Example 380, (3R)-3-amino-5-[(4-chlorophenyl)methyl]-1,1-dioxo-7-[5-[2,2,2-trideuterio-1,1-bis(trideuteriomethyl)ethyl]-1,3,4-oxadiazol-2-yl]-2,3-dihydro-1λ^6,5-benzothiazepin-4-one], the EC50 in test [1] worked out at 819 nM; in test [2] (setting [4]), 613 nM. Further, the Emax in test [2] (setting [3]) turned out to be 132%.
For `CC1(c2nnc(-c3ccc4c(c3)N(Cc3ccc(Cl)cc3)C(=O)[C@@H](N)CS4(=O)=O)o2)CCN(C(=O)OCC(F)(F)F)CC1` [Example 382, 2,2,2-trifluoroethyl 4-[5-[(3R)-3-amino-5-[(4-chlorophenyl)methyl]-1,1,4-trioxo-2,3-dihydro-1λ^6,5-benzothiazepin-7-yl]-1,3,4-oxadiazol-2-yl]-4-methyl-piperidine-1-carboxylate], the EC50 came to 1680 nM in test [1] and 893 nM in test [2] (setting [4]). Besides, in test [2] (setting [3]), the Emax was found to be 100%.
For `Cc1ccc(OC(=O)N2CCC(C)(c3nnc(-c4ccc5c(c4)N(Cc4ccc(Cl)cc4)C(=O)[C@@H](N)CS5(=O)=O)o3)CC2)cn1` [Example 383, (6-methyl-3-pyridyl) 4-[5-[(3R)-3-amino-5-[(4-chlorophenyl)methyl]-1,1,4-trioxo-2,3-dihydro-1λ^6,5-benzothiazepin-7-yl]-1,3,4-oxadiazol-2-yl]-4-methyl-piperidine-1-carboxylate], the EC50 in test [1] turned out to be 857 nM; in test [2], 1320 nM. Besides, the Emax in test [2] amounted to 94%.
Regarding `CN1CC(c2nnc(-c3ccc4c(c3)N(Cc3ccc(Cl)cc3)C(=O)[C@@H](N)CS4(=O)=O)o2)CC(F)(F)C1` (stereo partly drawn) [Example 385, (3R)-3-amino-5-[(4-chlorophenyl)methyl]-7-[5-(5,5-difluoro-1-methyl-3-piperidyl)-1,3,4-oxadiazol-2-yl]-1,1-dioxo-2,3-dihydro-1λ^6,5-benzothiazepin-4-one], the values for the EC50 in test [1] and in test [2] (setting [4]) were 895 nM and 1490 nM, respectively. Besides, the Emax in test [2] (setting [3]) is 106%.
Regarding `N[C@H]1CS(=O)(=O)c2ccc(-c3nnc(C4CC5(CC(O)C5)C4)o3)cc2N(Cc2ccc(Cl)cc2)C1=O` (stereo partly drawn) [Example 387, (3R)-3-amino-5-[(4-chlorophenyl)methyl]-7-[5-(2-hydroxyspiro[3.3]heptan-6-yl)-1,3,4-oxadiazol-2-yl]-1,1-dioxo-2,3-dihydro-1λ^6,5-benzothiazepin-4-one], the values for the EC50 in test [1] and in test [2] (setting [4]) were 2280 nM and 1120 nM, respectively. In addition, in test [2] (setting [3]), the Emax was determined as 157%.
In the case of `COC(F)(c1nnc(-c2ccc3c(c2)N(Cc2ccc(Cl)cc2)C(=O)[C@@H](N)CS3(=O)=O)o1)C(F)(F)F` (stereo partly drawn) [Example 388, (3R)-3-amino-5-[(4-chlorophenyl)methyl]-1,1-dioxo-7-[5-(1,2,2,2-tetrafluoro-1-methoxy-ethyl)-1,3,4-oxadiazol-2-yl]-2,3-dihydro-1λ^6,5-benzothiazepin-4-one], the results for the EC50 in test [1] and in test [2] (setting [4]) were 331 nM and 166 nM, respectively. The Emax in test [2] (setting [3]) was 129%.
As to `COC(=O)N1CCC(C#N)(c2nnc(-c3ccc4c(c3)N(Cc3ccc(Cl)cc3)C(=O)[C@@H](N)CS4(=O)=O)o2)CC1` [Example 389, methyl 4-[5-[(3R)-3-amino-5-[(4-chlorophenyl)methyl]-1,1,4-trioxo-2,3-dihydro-1λ^6,5-benzothiazepin-7-yl]-1,3,4-oxadiazol-2-yl]-4-cyano-piperidine-1-carboxylate], the EC50 in test [1] is greater than 2730 nM; in test [2] (setting [4]), 1990 nM. Further, the Emax in test [2] (setting [3]) turned out to be 80%.
On to `CC(F)(F)CNc1nnc(-c2ccc3c(c2)N(Cc2ccc(Cl)cc2)C(=O)[C@@H](N)CS3(=O)=O)o1` [Example 393, (3R)-3-amino-5-[(4-chlorophenyl)methyl]-7-[5-(2,2-difluoropropylamino)-1,3,4-oxadiazol-2-yl]-1,1-dioxo-2,3-dihydro-1λ^6,5-benzothiazepin-4-one], for which the EC50 in test [1] is 4010 nM; in test [2] (setting [4]), 2820 nM. In addition, the Emax in test [2] (setting [3]) is 51%.
`CN(c1nnc(-c2ccc3c(c2)N(Cc2ccc(Cl)cc2)C(=O)[C@@H](N)CS3(=O)=O)o1)C1CC1` [Example 394, (3R)-3-amino-5-[(4-chlorophenyl)methyl]-7-[5-[cyclopropyl(methyl)amino]-1,3,4-oxadiazol-2-yl]-1,1-dioxo-2,3-dihydro-1λ^6,5-benzothiazepin-4-one]: the EC50 was 3090 nM in test [1] and 1770 nM in test [2] (setting [4]). For the same compound, the Emax in test [2] (setting [3]) turned out to be 98%.
`CC1(C)CN(c2nnc(-c3ccc4c(c3)N(Cc3ccc(Cl)cc3)C(=O)[C@@H](N)CS4(=O)=O)o2)CCO1` [Example 395, (3R)-3-amino-5-[(4-chlorophenyl)methyl]-7-[5-(2,2-dimethylmorpholin-4-yl)-1,3,4-oxadiazol-2-yl]-1,1-dioxo-2,3-dihydro-1λ^6,5-benzothiazepin-4-one]: the EC50 in test [1] worked out at 1120 nM; in test [2] (setting [4]), 517 nM. Also, in test [2] (setting [3]), the Emax turned out to be 88%.
On the same counts, the results for `N[C@H]1CS(=O)(=O)c2ccc(-c3nnc(N4CCC(F)(F)CC4)o3)cc2N(Cc2ccc(Cl)cc2)C1=O` [Example 396, (3R)-3-amino-5-[(4-chlorophenyl)methyl]-7-[5-(4,4-difluoro-1-piperidyl)-1,3,4-oxadiazol-2-yl]-1,1-dioxo-2,3-dihydro-1λ^6,5-benzothiazepin-4-one] are 937 nM, 526 nM and 87%.
The like results for `N[C@H]1CS(=O)(=O)c2ccc(-c3nnc(N4CC5(CCC5)C4)o3)cc2N(Cc2ccc(Cl)cc2)C1=O` [Example 398, (3R)-3-amino-7-[5-(2-azaspiro[3.3]heptan-2-yl)-1,3,4-oxadiazol-2-yl]-5-[(4-chlorophenyl)methyl]-1,1-dioxo-2,3-dihydro-1λ^6,5-benzothiazepin-4-one] were, in that order, 879 nM, 3480 nM and 115%.
Consider `CC(C)Nc1nnc(-c2ccc3c(c2)N(Cc2ccc(Cl)cc2)C(=O)[C@@H](N)CS3(=O)=O)o1` [Example 399, (3R)-3-amino-5-[(4-chlorophenyl)methyl]-7-[5-(isopropylamino)-1,3,4-oxadiazol-2-yl]-1,1-dioxo-2,3-dihydro-1λ^6,5-benzothiazepin-4-one], for which the EC50 was determined as 3580 nM in test [1] and 3460 nM in test [2] (setting [4]). Further, the Emax in test [2] (setting [3]) is 73%.
The like results for `N[C@H]1CS(=O)(=O)c2ccc(-c3nnc(N4CC(CO)(CCl)C4)o3)cc2N(Cc2ccc(Cl)cc2)C1=O` [Example 400, (3R)-3-amino-7-[5-[3-(chloromethyl)-3-(hydroxymethyl)azetidin-1-yl]-1,3,4-oxadiazol-2-yl]-5-[(4-chlorophenyl)methyl]-1,1-dioxo-2,3-dihydro-1λ^6,5-benzothiazepin-4-one] were, in that order, 4050 nM, 5220 nM and 72%.
In the case of `N[C@H]1CS(=O)(=O)c2ccc(-c3nnc(N4CC5(C4)CC(F)(F)C5)o3)cc2N(Cc2ccc(Cl)cc2)C1=O` [Example 402, (3R)-3-amino-5-[(4-chlorophenyl)methyl]-7-[5-(6,6-difluoro-2-azaspiro[3.3]heptan-2-yl)-1,3,4-oxadiazol-2-yl]-1,1-dioxo-2,3-dihydro-1λ^6,5-benzothiazepin-4-one], the EC50 in test [1] was determined as 1640 nM; in test [2] (setting [4]), 928 nM. In addition, the Emax in test [2] (setting [3]) stood at 93%.
Consider `COCC1(Nc2nnc(-c3ccc4c(c3)N(Cc3ccc(Cl)cc3)C(=O)[C@@H](N)CS4(=O)=O)o2)CC(F)(F)C1` [Example 403, (3R)-3-amino-5-[(4-chlorophenyl)methyl]-7-[5-[[3,3-difluoro-1-(methoxymethyl)cyclobutyl]amino]-1,3,4-oxadiazol-2-yl]-1,1-dioxo-2,3-dihydro-1λ^6,5-benzothiazepin-4-one], for which the EC50 in test [1] came out at 3680 nM; in test [2] (setting [4]) it was 1150 nM. Further, the Emax in test [2] (setting [3]) amounted to 83%.
